Assay results as given in patent US9566311B2, “Pharmaceutical composition” (Ferring B.V., priority 2010, dated 2017).
Each block holds one molecule with its values, some of them ahead of it. Numbered stars: 1 amine (or outer) side, 2 acyl side, 3 side chain; on linkers, the order of the positions; unused ones are H or OH. Bridge positions count the residues as written; N and C are the ends. Peptide text beside a SMILES is read from it. X1 = O=C(CCC[*:2])[*:1]

How the values were obtained:
[1] = in vivo, cited from earlier work
[2] = Stability of FE 202767 in citrate and citrate-phosphate buffers at 40° C., intact peptide by HPLC; assay type: physicochemical
Description: FE 202767 (Ferring) was synthesised by the method set out in WO2009/122285. FE 202767 was dissolved at a concentration of 0.2 mg/ml in either 25 mM citrate buffer (isotonic to saline) or 25 mM citrate-phosphate buffer (isotonic with saline) at varying pH (pH 5.0, 5.5, 6.0), by methods known in the art. The solutions were incubated at 40° C. for 176 days, with samples taken at day 0, 15, 30, 84, and 176.
Samples were evaluated by HPLC to determine the amount of intact peptide remaining at the various time points, by methods well known in the art, comparing the % Area. of the intact peptide peak on the sampling day vs. % Area on Day 0.
The HPLC method used an Agilent 1200 instrument. […] The Phenomenex MAX-RP C18, 2.0×150 mm, 4 μm, 80 Å column was at temperature 40 with UV detection at 210 nm. The injection volume was 10 μL.

[3] = Stability of FE 202767 in various buffers at 40° C./75% RH for one and three months, HPLC; assay type: physicochemical
Description: The method was similar to Example 7. FE 202767 (Ferring) was synthesised by the method set out in WO2009/122285. The FE 202767 was dissolved at a concentration of 0.2 mg/ml in either 25 mM citrate buffer (citric acid/Na citrate), 10 mM acetate buffer (acetic acetate/Na acetate) or 10 mM succinate buffer (1 mM succinic acid+NaOH to relevant pH) at varying pH (pH 5.0, 5.2, 5.5, 5.65, 5.8, 6.0), by methods known in the art. As set out in the table below, the various samples also included isotonicity agent (NaCl, 7 mg/mL or mannitol 47 mg/mL) to achieve isotonicity. Some of the samples included […] (methionine 1 mg/mL, EDTA 1 mg/mL, or combination of EDTA 1 mg/mL and methionine 1 mg/mL). Each formulation (see Table below) was filled in a 10R glass vial sealed with a rubber stopper and an aluminium cap.
The solutions were incubated at 40° C. at 75% RH, with samples taken at day 30 (1 month), and day 90 (3 months).
Samples were evaluated by HPLC to determine the amount of intact peptide remaining at the various time points, by methods well known in the art, comparing the % Area of the intact peptide peak on the sampling day vs. % Area on Day 0.
The HPLC method used an Agilent 1100 instrument. The mobile phases where HPLC Buffers A (A=0.1% TFA in water) and B (B=0.1% TFA in acetonitrile) with the gradient 20 to 30% B in 40 min, then 30 to 60% B in 15 min, then 60 to 20% B in 1 min and then 20% B for 10 min at flow rate 0.5 mL/min. The Zorbax 300SB C16, 3.0×150 mm, 3.5 μm, 300 Å column was at temperature 25 with UV detection at 214 nm. The injection volume was 15 μL

Molecule: CC[C@H](C)[C@@H]1NC(=O)[C@H](Cc2ccc(OC)cc2)NC(=O)CCCSC[C@@H](C(=O)N2CCC[C@H]2C(=O)N[C@@H](CC(C)C)C(=O)NCC(N)=O)NC(=O)[C@H](CC(N)=O)NC(=O)[C@H](CCC(N)=O)NC1=O [carbetocin, (1-desamino-1-monocarba-2(O-methyl)-tyrosine)oxytocin] (Y(Me)IQNCPLG-NH2; linker N-5 via X1)
- bioavailability ([1]; human, im): 80%
- half-life ([1]; human, iv): approximately 40 minutes
- half-life relative to the reported half-life of oxytocin ([1]; iv): 4 to 10 times longer
- time to peak plasma concentrations [1]: less than thirty minutes

- intact peptide remaining ([2]; after 176 days at 40° C. in citrate buffer at pH 5.0 and 5.5): > 95%
- intact peptide remaining ([2]; after 176 days at 40° C. in citrate-phosphate buffers, pH 5.0, 5.5 and 6.0, each condition): > 95%
- degradation (in words) ([2]; after 176 days at 40° C. in pH 6.0 citrate buffer): significant degradation
- stability (in words) ([3]; citrate and acetate buffers in the pH range tested, after 30 days at 40° C.): good stability
- stability (in words) ([3]; citrate and acetate buffers in the pH range tested, after 90 days at 40° C.): good stability
- stability (in words) ([3]; succinate buffer at pH 5.0 to 5.65, after 30 days at 40° C.): very stable
- stability (in words) ([3]; succinate buffer at pH 5.0 to 5.65, after 90 days at 40° C.): stable
Molecule: carba-1-[4-FBzIGly^7]dOT [FE 202767]

Molecule: CC[C@H](C)[C@@H]1NC(=O)[C@H](Cc2ccc(O)cc2)NC(=O)[C@@H](N)CSSC[C@@H](C(=O)N2CCC[C@H]2C(=O)N[C@@H](CC(C)C)C(=O)NCC(N)=O)NC(=O)[C@H](CC(N)=O)NC(=O)[C@H](CCC(N)=O)NC1=O [oxytocin]
- reported half-life [1]: 4 to 10 min
